How the values were obtained:
Type in all cases: functional
A549 = experiment: Growth inhibition of human A549 cells measured after 48 hrs by SRB assay
NCI-H522 = experiment: Growth inhibition of human NCI-H522 cells measured after 48 hrs by SRB assay
HOP-62 = experiment: Growth inhibition of human HOP-62 cells measured after 48 hrs by SRB assay
UACC-257 = experiment: Growth inhibition of human UACC-257 cells measured after 48 hrs by SRB assay
CAKI-1 = experiment: Growth inhibition of human CAKI-1 cells measured after 48 hrs by SRB assay
SK-OV-3 = experiment: Growth inhibition of human SK-OV-3 cells measured after 48 hrs by SRB assay
IGROV-1 = experiment: Growth inhibition of human IGROV-1 cells measured after 48 hrs by SRB assay
HL-60 = experiment: Growth inhibition of human HL-60 cells measured after 48 hrs by SRB assay
COLO 205 = experiment: Growth inhibition of human COLO 205 cells measured after 48 hrs by SRB assay
SNB-75 = experiment: Growth inhibition of human SNB-75 cells measured after 48 hrs by SRB assay
MDA-MB-231 = experiment: Growth inhibition of human MDA-MB-231 cells measured after 48 hrs by SRB assay
KM12 = experiment: Growth inhibition of human KM12 cells measured after 48 hrs by SRB assay
OVCAR-3 = experiment: Growth inhibition of human OVCAR-3 cells measured after 48 hrs by SRB assay
SF-268 = experiment: Growth inhibition of human SF-268 cells measured after 48 hrs by SRB assay
SN12C = experiment: Growth inhibition of human SN12C cells measured after 48 hrs by SRB assay
HOP-92 = experiment: Growth inhibition of human HOP-92 cells measured after 48 hrs by SRB assay
MOLT-4 = experiment: Growth inhibition of human MOLT-4 cells measured after 48 hrs by SRB assay
786-0 = experiment: Growth inhibition of human 786-0 cells measured after 48 hrs by SRB assay
DU-145 = experiment: Growth inhibition of human DU-145 cells measured after 48 hrs by SRB assay
TK-10 = experiment: Growth inhibition of human TK-10 cells measured after 48 hrs by SRB assay
OVCAR-5 = experiment: Growth inhibition of human OVCAR-5 cells measured after 48 hrs by SRB assay
ACHN = experiment: Growth inhibition of human ACHN cells measured after 48 hrs by SRB assay
HCC 2998 = experiment: Growth inhibition of human HCC 2998 cells measured after 48 hrs by SRB assay
T47D = experiment: Growth inhibition of human T47D cells measured after 48 hrs by SRB assay
CCRF-CEM = experiment: Growth inhibition of human CCRF-CEM cells measured after 48 hrs by SRB assay
NCI-H322M = experiment: Growth inhibition of human NCI-H322M cells measured after 48 hrs by SRB assay
SK-MEL-5 = experiment: Growth inhibition of human SK-MEL-5 cells measured after 48 hrs by SRB assay
RPMI-8226 = experiment: Growth inhibition of human RPMI-8226 cells measured after 48 hrs by SRB assay
SK-MEL-28 = experiment: Growth inhibition of human SK-MEL-28 cells measured after 48 hrs by SRB assay
LOX IMVI = experiment: Growth inhibition of human LOX IMVI cells measured after 48 hrs by SRB assay
M14 = experiment: Growth inhibition of human M14 cells measured after 48 hrs by SRB assay
NCI-H226 = experiment: Growth inhibition of human NCI-H226 cells measured after 48 hrs by SRB assay
UACC-62 = experiment: Growth inhibition of human UACC-62 cells measured after 48 hrs by SRB assay
A498 = experiment: Growth inhibition of human A498 cells measured after 48 hrs by SRB assay
SR = experiment: Growth inhibition of human SR cells measured after 48 hrs by SRB assay
SF-295 = experiment: Growth inhibition of human SF-295 cells measured after 48 hrs by SRB assay
BT-549 = experiment: Growth inhibition of human BT-549 cells measured after 48 hrs by SRB assay
OVCAR-8 = experiment: Growth inhibition of human OVCAR-8 cells measured after 48 hrs by SRB assay
K562 = experiment: Growth inhibition of human K562 cells measured after 48 hrs by SRB assay
HCT-116 = experiment: Growth inhibition of human HCT-116 cells measured after 48 hrs by SRB assay
SW-620 = experiment: Growth inhibition of human SW-620 cells measured after 48 hrs by SRB assay
MDA-MB-435 = experiment: Growth inhibition of human MDA-MB-435 cells measured after 48 hrs by SRB assay
MDA-MB-468 = experiment: Growth inhibition of human MDA-MB-468 cells measured after 48 hrs by SRB assay
SK-MEL-2 = experiment: Growth inhibition of human SK-MEL-2 cells measured after 48 hrs by SRB assay
SF-539 = experiment: Growth inhibition of human SF-539 cells measured after 48 hrs by SRB assay
Hs-578T = experiment: Growth inhibition of human Hs-578T cells measured after 48 hrs by SRB assay
RXF 393 = experiment: Growth inhibition of human RXF 393 cells measured after 48 hrs by SRB assay
NCI/ADR-RES = experiment: Growth inhibition of human NCI/ADR-RES cells measured after 48 hrs by SRB assay
NCI-H23 = experiment: Growth inhibition of human NCI-H23 cells measured after 48 hrs by SRB assay
SNB-19 = experiment: Growth inhibition of human SNB-19 cells measured after 48 hrs by SRB assay
NCI-H460 = experiment: Growth inhibition of human NCI-H460 cells measured after 48 hrs by SRB assay
HCT-15 = experiment: Growth inhibition of human HCT-15 cells measured after 48 hrs by SRB assay
MCF7 = experiment: Growth inhibition of human MCF7 cells measured after 48 hrs by SRB assay
UO-31 = experiment: Growth inhibition of human UO-31 cells measured after 48 hrs by SRB assay
PC-3 = experiment: Growth inhibition of human PC-3 cells measured after 48 hrs by SRB assay
Malme-3M = experiment: Growth inhibition of human Malme-3M cells measured after 48 hrs by SRB assay
HT-29 = experiment: Growth inhibition of human HT-29 cells measured after 48 hrs by SRB assay
U-251 = experiment: Growth inhibition of human U-251 cells measured after 48 hrs by SRB assay

C[C@]12CC[C@@H](O)C=C1CC[C@@H]1[C@@H]2[C@@H](O)C[C@]2(C)[C@@H](c3ccc(=O)oc3)CC[C@]12O
GI50 (A549): 649 nM
GI50 (NCI-H522): 639 nM
GI50 (HOP-62): 1550 nM
GI50 (UACC-257): 3450 nM
GI50 (CAKI-1): 2470 nM
GI50 (SK-OV-3): 4240 nM
GI50 (IGROV-1): 3690 nM
GI50 (HL-60): 273 nM
GI50 (COLO 205): 6050 nM
GI50 (SNB-75): 2170 nM
GI50 (MDA-MB-231): 8500 nM
GI50 (KM12): 5000 nM
GI50 (OVCAR-3): 739 nM
GI50 (SF-268): 656 nM
GI50 (SN12C): 1070 nM
GI50 (HOP-92): 2100 nM
GI50 (MOLT-4): 303 nM
GI50 (786-0): 998 nM
GI50 (DU-145): 760 nM
GI50 (TK-10): 2980 nM
GI50 (OVCAR-5): 2840 nM
GI50 (ACHN): 475 nM
GI50 (HCC 2998): 7850 nM
GI50 (T47D): 4710 nM
GI50 (CCRF-CEM): 502 nM
GI50 (NCI-H322M): 2880 nM
GI50 (SK-MEL-5): 3030 nM
GI50 (RPMI-8226): 2540 nM
GI50 (SK-MEL-28): 3470 nM
GI50 (LOX IMVI): 3690 nM
GI50 (M14): 3380 nM
GI50 (NCI-H226): 7560 nM
GI50 (UACC-62): 3310 nM
GI50 (A498): 1770 nM
GI50 (SR): 189 nM
GI50 (SF-295): 1750 nM
GI50 (BT-549): 658 nM
GI50 (OVCAR-8): 2110 nM
GI50 (K562): 644 nM
GI50 (HCT-116): 532 nM
GI50 (SW-620): 1690 nM
GI50 (MDA-MB-435): 3350 nM
GI50 (MDA-MB-468): 10200 nM
GI50 (SK-MEL-2): 3060 nM
GI50 (SF-539): 1490 nM
GI50 (Hs-578T): 831 nM
GI50 (RXF 393): 412 nM
GI50 (NCI/ADR-RES): 2230 nM
GI50 (NCI-H23): 2230 nM
GI50 (SNB-19): 4970 nM
GI50 (NCI-H460): 573 nM
GI50 (HCT-15): 4110 nM
GI50 (MCF7): 3530 nM
GI50 (UO-31): 2150 nM
GI50 (PC-3): 1880 nM
GI50 (Malme-3M): 4350 nM

CCO[C@H]1C=C2CC[C@@H]3[C@H]([C@@H](O)C[C@]4(C)[C@@H](c5ccc(=O)oc5)CC[C@]34O)[C@@]2(C)CC1
GI50 (A549): 434 nM
GI50 (NCI-H522): 252 nM
GI50 (HOP-62): 974 nM
GI50 (UACC-257): 1890 nM
GI50 (CAKI-1): 1150 nM
GI50 (SK-OV-3): 1910 nM
GI50 (IGROV-1): 1840 nM
GI50 (HL-60): 649 nM
GI50 (COLO 205): 4220 nM
GI50 (SNB-75): 1060 nM
GI50 (MDA-MB-231): > 5750 nM
GI50 (KM12): 2200 nM
GI50 (OVCAR-3): 618 nM
GI50 (SF-268): 471 nM
GI50 (SN12C): 905 nM
GI50 (HOP-92): 757 nM
GI50 (MOLT-4): 189 nM
GI50 (786-0): 927 nM
GI50 (DU-145): 423 nM
GI50 (TK-10): 1300 nM
GI50 (OVCAR-5): 2030 nM
GI50 (ACHN): 251 nM
GI50 (HCC 2998): 4510 nM
GI50 (T47D): 2170 nM
GI50 (CCRF-CEM): 233 nM
GI50 (NCI-H322M): 1400 nM
GI50 (SK-MEL-5): 1360 nM
GI50 (RPMI-8226): 1450 nM
GI50 (SK-MEL-28): 1660 nM
GI50 (LOX IMVI): 1800 nM
GI50 (M14): 1930 nM
GI50 (NCI-H226): 1770 nM
GI50 (UACC-62): 1270 nM
GI50 (A498): 460 nM
GI50 (SR): 418 nM
GI50 (SF-295): 1200 nM
GI50 (BT-549): 946 nM
GI50 (OVCAR-8): 1670 nM
GI50 (K562): 1270 nM
GI50 (HCT-116): 716 nM
GI50 (SW-620): 911 nM
GI50 (MDA-MB-435): 1400 nM
GI50 (MDA-MB-468): > 550 nM
GI50 (SK-MEL-2): 1200 nM
GI50 (SF-539): 968 nM
GI50 (Hs-578T): 369 nM
GI50 (RXF 393): 709 nM
GI50 (NCI/ADR-RES): 1610 nM
GI50 (NCI-H23): 1360 nM
GI50 (SNB-19): 2350 nM
GI50 (NCI-H460): 247 nM
GI50 (HCT-15): 1800 nM
GI50 (MCF7): 1520 nM
GI50 (UO-31): 940 nM
GI50 (PC-3): 839 nM
GI50 (Malme-3M): 1800 nM

CCO[C@@H]1C=C2CC[C@@H]3[C@H]([C@@H](O)C[C@]4(C)[C@@H](c5ccc(=O)oc5)CC[C@]34O)[C@@]2(C)CC1
GI50 (A549): 40 nM
GI50 (NCI-H522): 35 nM
GI50 (HOP-62): 56 nM
GI50 (UACC-257): 268 nM
GI50 (CAKI-1): 57 nM
GI50 (SK-OV-3): 338 nM
GI50 (IGROV-1): 138 nM
GI50 (HL-60): 120 nM
GI50 (COLO 205): 401 nM
GI50 (SNB-75): 187 nM
GI50 (MDA-MB-231): 588 nM
GI50 (KM12): 349 nM
GI50 (OVCAR-3): 59 nM
GI50 (SF-268): 58 nM
GI50 (SN12C): 46 nM
GI50 (HOP-92): 153 nM
GI50 (MOLT-4): 42 nM
GI50 (786-0): 71 nM
GI50 (DU-145): 52 nM
GI50 (HT-29): 78 nM
GI50 (TK-10): 94 nM
GI50 (OVCAR-5): 280 nM
GI50 (ACHN): 37 nM
GI50 (HCC 2998): 537 nM
GI50 (T47D): 255 nM
GI50 (CCRF-CEM): 54 nM
GI50 (NCI-H322M): 121 nM
GI50 (SK-MEL-5): 72 nM
GI50 (SK-MEL-28): 296 nM
GI50 (LOX IMVI): 137 nM
GI50 (M14): 232 nM
GI50 (NCI-H226): 181 nM
GI50 (UACC-62): 145 nM
GI50 (A498): 39 nM
GI50 (SR): 124 nM
GI50 (SF-295): 61 nM
GI50 (U-251): 151 nM
GI50 (BT-549): 56 nM
GI50 (OVCAR-8): 165 nM
GI50 (K562): 129 nM
GI50 (HCT-116): 39 nM
GI50 (SW-620): 63 nM
GI50 (MDA-MB-435): 178 nM
GI50 (MDA-MB-468): 501 nM
GI50 (SK-MEL-2): 234 nM
GI50 (SF-539): 66 nM
GI50 (Hs-578T): 44 nM
GI50 (RXF 393): 25 nM
GI50 (NCI/ADR-RES): 91 nM
GI50 (NCI-H23): 86 nM
GI50 (SNB-19): 347 nM
GI50 (NCI-H460): 39 nM
GI50 (HCT-15): 86 nM
GI50 (MCF7): 55 nM
GI50 (UO-31): 54 nM
GI50 (PC-3): 145 nM
GI50 (Malme-3M): 145 nM

— ChEMBL document CHEMBL4837183, “Antiproliferative Bufadienolides from the Bulbs of Drimia altissima” (2021)
